Where two headings read alike, the source gives them in different places.
Experiments:
Type in all cases: cell-based
[1] = target: T1, human OAT1 (Homo sapiens, UniProt Q4U2R8); test: Polyphenol inhibition of OAT1-mediated OTA uptake in HEK293 cells; conditions: for OTA uptake, fraction of vehicle control: polyphenol 10 μM, 300 nM OTA, 5 min
T1 construct: host or cells: HEK293, stably transfected
T1 sequence (Q4U2R8 1-563): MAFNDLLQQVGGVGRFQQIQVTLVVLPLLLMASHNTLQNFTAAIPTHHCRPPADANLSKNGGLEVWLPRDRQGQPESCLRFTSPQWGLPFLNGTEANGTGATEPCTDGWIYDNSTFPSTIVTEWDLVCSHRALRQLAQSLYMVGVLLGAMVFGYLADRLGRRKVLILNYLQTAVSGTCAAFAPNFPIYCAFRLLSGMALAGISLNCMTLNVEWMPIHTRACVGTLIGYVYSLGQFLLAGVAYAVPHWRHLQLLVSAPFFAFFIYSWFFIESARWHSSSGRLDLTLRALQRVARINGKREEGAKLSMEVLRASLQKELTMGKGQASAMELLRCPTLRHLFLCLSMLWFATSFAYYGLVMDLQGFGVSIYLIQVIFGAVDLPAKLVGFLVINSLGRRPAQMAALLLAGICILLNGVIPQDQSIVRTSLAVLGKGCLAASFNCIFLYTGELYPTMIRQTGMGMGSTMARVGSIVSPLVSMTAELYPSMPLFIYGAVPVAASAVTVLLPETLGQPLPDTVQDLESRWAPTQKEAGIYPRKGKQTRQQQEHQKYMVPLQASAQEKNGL
Description: (§1) Because OATP1A2 is expressed at exceptionally low levels in the apical membrane of the kidney as well as in the liver and intestine, interaction studies focused on OAT1, OAT3, OAT4, and BCRP as these will have a greater impact on circulating polyphenol levels. […] Uptake assays were performed in three independent experiments, each in technical triplicate.
(§2) A p-value < 0.05 was considered statistically significant. For the estimation of IC50 or EC50 values, transport activity data were fitted with the following four-parameter logistic models: V=Bottom+Top−Bottom/1+I/IC50^h for inhibitors V=Bottom+[I]^h×(Top−Bottom)/[I]^h+EC50^h for activators where V is transport activity expressed as a percentage of vehicle control, [I] is inhibitor (or activator) concentration, Top and Bottom are the asymptotic plateaus, IC50 or EC50 is the concentration producing half-maximal inhibition (or activation), and h is the Hill slope. All data analyses were performed using GraphPad Prism version 10.2.3 (GraphPad). Parameter estimates are reported as best-fit ± standard error from three independent experiments, each run in technical triplicate.

[2] = target: T2, OAT3 (Homo sapiens, UniProt Q8TCC7); test: Polyphenol inhibition of OAT3-mediated OTA uptake in HEK293 cells; set-up: host or cells: HEK293, stably transfected; conditions: for OTA uptake, fraction of vehicle control: polyphenol 10 μM, 300 nM OTA, 5 min
T2 sequence (Q8TCC7 1-542): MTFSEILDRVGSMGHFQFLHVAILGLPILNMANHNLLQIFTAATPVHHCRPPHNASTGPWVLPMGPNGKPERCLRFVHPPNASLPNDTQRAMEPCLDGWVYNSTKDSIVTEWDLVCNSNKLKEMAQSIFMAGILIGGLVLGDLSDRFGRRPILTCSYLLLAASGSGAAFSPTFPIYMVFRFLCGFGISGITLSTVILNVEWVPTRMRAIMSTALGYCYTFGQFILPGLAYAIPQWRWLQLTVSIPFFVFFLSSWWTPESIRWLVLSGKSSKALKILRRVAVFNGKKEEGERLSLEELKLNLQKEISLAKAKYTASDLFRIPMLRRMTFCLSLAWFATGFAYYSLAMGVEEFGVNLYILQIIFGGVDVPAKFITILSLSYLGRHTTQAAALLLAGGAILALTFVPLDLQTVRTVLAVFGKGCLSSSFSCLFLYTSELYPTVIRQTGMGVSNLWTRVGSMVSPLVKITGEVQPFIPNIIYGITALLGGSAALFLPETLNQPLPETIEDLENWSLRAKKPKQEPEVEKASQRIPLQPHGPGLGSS
Description: as §1, §2

[3] = target: T3, OAT4 (Homo sapiens, UniProt Q9NSA0); test: Polyphenol inhibition of OAT4-mediated OTA uptake in HEK293 cells; set-up: host or cells: HEK293, stably transfected; conditions: polyphenol 10 μM, 300 nM OTA, 5 min
T3 sequence (Q9NSA0 1-550): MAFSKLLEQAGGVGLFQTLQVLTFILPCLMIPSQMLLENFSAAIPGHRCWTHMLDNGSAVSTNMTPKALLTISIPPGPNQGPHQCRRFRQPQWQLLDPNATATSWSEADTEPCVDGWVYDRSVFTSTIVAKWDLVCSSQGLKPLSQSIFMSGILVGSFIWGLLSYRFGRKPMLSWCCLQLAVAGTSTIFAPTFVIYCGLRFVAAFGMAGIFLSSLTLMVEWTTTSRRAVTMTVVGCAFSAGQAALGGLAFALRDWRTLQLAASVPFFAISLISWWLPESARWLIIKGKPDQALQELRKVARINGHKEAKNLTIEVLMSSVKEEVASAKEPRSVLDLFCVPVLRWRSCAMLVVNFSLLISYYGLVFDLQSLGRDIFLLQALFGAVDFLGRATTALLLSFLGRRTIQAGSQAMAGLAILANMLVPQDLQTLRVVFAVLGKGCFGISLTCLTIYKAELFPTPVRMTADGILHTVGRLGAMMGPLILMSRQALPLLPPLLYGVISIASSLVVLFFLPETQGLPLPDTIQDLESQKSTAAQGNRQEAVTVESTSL
Description: as §1, §2

[4] = target: T4, human BCRP (Homo sapiens, UniProt Q9UNQ0); test: Polyphenol modulation of BCRP-mediated OTA efflux in MDCK-II cells; set-up: host or cells: MDCK-II, transient plasmid transfection
T4 sequence (Q9UNQ0 1-655): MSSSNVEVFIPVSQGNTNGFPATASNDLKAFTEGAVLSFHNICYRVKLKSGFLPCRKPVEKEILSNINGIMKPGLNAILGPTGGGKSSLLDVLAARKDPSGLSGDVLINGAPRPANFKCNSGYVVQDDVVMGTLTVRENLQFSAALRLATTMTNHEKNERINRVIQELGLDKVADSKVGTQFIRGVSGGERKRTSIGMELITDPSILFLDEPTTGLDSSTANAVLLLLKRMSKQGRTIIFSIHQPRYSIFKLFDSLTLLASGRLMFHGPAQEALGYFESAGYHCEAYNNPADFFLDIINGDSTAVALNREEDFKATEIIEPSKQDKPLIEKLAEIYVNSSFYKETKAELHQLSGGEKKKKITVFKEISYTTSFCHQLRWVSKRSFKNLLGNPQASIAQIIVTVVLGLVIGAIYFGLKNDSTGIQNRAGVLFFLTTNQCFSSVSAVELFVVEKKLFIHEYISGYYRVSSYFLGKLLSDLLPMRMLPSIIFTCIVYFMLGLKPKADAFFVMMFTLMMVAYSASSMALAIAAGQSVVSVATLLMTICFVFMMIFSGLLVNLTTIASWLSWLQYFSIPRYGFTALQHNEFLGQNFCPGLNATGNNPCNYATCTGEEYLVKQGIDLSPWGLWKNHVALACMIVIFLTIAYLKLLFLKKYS
Description: The concentrations of polyphenols tested were as follows: ECG and miquelianin: 100, 200, 400, 600, 800, 1000 μM; caffeic acid: 50, 100, 500, 1000, 5000, 10,000 μM; luteolin: 0.1, 1, 10, 20, 25, 40, 50, 60, 100, 150 μM; myricetin: 5, 10, 50, 100, 250, 500, 650, 750, 850, 1000 μM. All other assay conditions were as described above. Transport activity was expressed as percent of vehicle control and fitted to a four-parameter logistic model to obtain half-maximal inhibitory concentration (IC50) values (for inhibition) or half-maximal effective concentration (EC50) values (for activation). Three independent experiments, each with technical triplicate, were performed for every compound.
as §2

| Compound | decrease of OAT1-mediated OTA uptake ([1]; 10 µM) [%] | OTA uptake, fraction of vehicle control [1] | decrease of OAT3-mediated OTA uptake ([2]; 10 µM) [%] | OTA uptake, fraction of vehicle control [2] | OTA uptake, fraction of vehicle control [3] | IC50 [4] [µM] | EC50 [4] [µM] | maximal stimulation of BCRP-mediated OTA efflux ([4]; 300 nM OTA) | effect on BCRP-mediated OTA transport ([4]; 300 nM OTA, 100 to 1000 μM) | IC50 ([4]; read-out: IC50, inhibition of BCRP-mediated OTA transport, 300 nM OTA, efflux ratio as % of vehicle control) [µM] |
| --- | --- | --- | --- | --- | --- | --- | --- | --- | --- | --- |
| O=c1cc(-c2ccc(O)c(O)c2)oc2cc(O)cc(O)c12 [luteolin] | 72 | 0.28 fold of vehicle control | 64 | 0.36 fold of vehicle control | 0.7 fold of vehicle control | 22 |  |  |  |  |
| O=C(O)/C=C/c1ccc(O)c(O)c1 [caffeic acid] |  | did not significantly inhibit |  | did not significantly inhibit | did not significantly inhibit |  | 714 | around 2 fold of control |  |  |
| quercetin 3-O glucuronide [Miquelianin] |  | no significant effects |  | 0.58 fold of vehicle control | no significant effects |  |  |  | no appreciable inhibition or activation |  |
| O=C(O[C@@H]1Cc2c(O)cc(O)cc2O[C@@H]1c1ccc(O)c(O)c1)c1cc(O)c(O)c(O)c1 [ECG, (-)-Epicatechin-3-O-gallate] |  | did not significantly inhibit |  | did not significantly inhibit | did not significantly inhibit |  |  |  |  | 495 |
| O=c1c(O)c(-c2cc(O)c(O)c(O)c2)oc2cc(O)cc(O)c12 [myricetin] |  | 0.73 fold of vehicle control |  | 0.74 fold of vehicle control | 0.82 fold of vehicle control | 425 |  |  |  |  |
